# Laboratory results taken from patent US6350585B1, “Reagent for assay of amylase isozyme activity” (priority 1998, dated 2002).
# What was measured:
# [1] = target: T1, S-type amylase (Calibzyme S) (Homo sapiens, UniProt P0DUB6); experiment: amylase isozyme activity assay with potassium thiocyanate as activator, S-type amylase sample; type: biochemical; details: for Relative sensitivity: G3CNP at 900 mM = 100; for Percent residual enzyme activity: composition A/B
# T1 construct: purchased International Reagents Corporation Calibzyme S
# T1 sequence (P0DUB6 16-511): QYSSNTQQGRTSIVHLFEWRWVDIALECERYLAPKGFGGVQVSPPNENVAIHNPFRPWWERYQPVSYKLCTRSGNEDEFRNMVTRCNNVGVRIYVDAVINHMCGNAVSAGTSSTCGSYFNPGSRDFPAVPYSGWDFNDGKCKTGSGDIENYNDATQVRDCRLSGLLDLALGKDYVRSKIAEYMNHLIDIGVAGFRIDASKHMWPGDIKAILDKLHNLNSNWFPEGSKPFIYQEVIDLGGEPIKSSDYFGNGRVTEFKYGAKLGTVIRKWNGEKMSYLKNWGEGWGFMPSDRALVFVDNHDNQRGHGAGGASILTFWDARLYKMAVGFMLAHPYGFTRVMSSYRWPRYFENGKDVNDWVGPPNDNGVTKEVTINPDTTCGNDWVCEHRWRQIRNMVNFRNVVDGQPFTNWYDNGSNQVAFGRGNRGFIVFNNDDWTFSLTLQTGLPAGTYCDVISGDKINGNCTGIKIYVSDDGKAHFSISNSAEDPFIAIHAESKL
# Method: A reagent for amylase isozyme activity assay comprising each composition as mentioned below was prepared. In the Table showing the composition, GalG2CNP (Example) is 2-chloro-4-nitrophenyl 4-O-β-D-galactopyranosylmaltoside, and G3CNP (Comparative Example) is 2-chloro-4-nitrophenylmaltotrioside.
# S-type amylase-inhibiting antibody 88E8 (manufactured by Roche Diagnostics K.K.) 20 mg/L
# S-type amylase-inhibiting antibody 66C7 (manufactured by Roche Diagnostics K.K.) 5 mg/L
# (§1) Substrate (GalG2CNP (Example) or G3CNP (Comparative Example)) 2.6 mM
# (§2) (3) S-type Amylase (Calibzyme S, Manufactured by International Reagents Corporation)
# Each sample (0.05 mL was added to the reagent A (3 mL) and the reagent B (3 mL), respectively, and the mixtures were allowed to stand at 37° C. for 3 minutes. Then, the change in absorbance at 405 nm was assayed, and the change in absorbance per minute was calculated. The results are shown in Tables 1 and 2.
# In the Tables, P is the case where P-type amylase was used as the sample, and S is the case where S-type amylase was used.
# Percent residual enzyme activity (%)=(change in absorbance of composition A)/(change in absorbance of composition B)×100
# Relative sensitivity (%)=(change in absorbance of composition B)/(change in absorbance of Comparative Example wherein potassium thiocyanate was 900 mM)×100
# [2] = target: T1, S-type amylase (Calibzyme S); experiment: amylase isozyme activity assay with sodium azide as activator, S-type amylase sample; type: biochemical; details: for Change in absorbance, Containing Antibody (Composition C) / Change in absorbance, Without antibody (Composition D) / Relative sensitivity / Percent residual enzyme activity: S-type amylase; for Relative sensitivity: G3CNP at 300 mM = 100; for Percent residual enzyme activity: composition C/D
# Method: S-type amylase inhibitory antibody 88E8 (manufactured by Roche Diagnostics K.K.) 20 mg/L
# S-type amylase inhibitory antibody 66C7 (manufactured by Roche Diagnostics K.K.) 5 mg/L
# as §1, §2
# Each of the above-mentioned samples (0.05 mL) was added to respective reagent C and D (3 mL) and the mixtures were left standing at 37° C. for 3 minutes. Then, change in absorbance at 405 nm was assayed and change in absorbance per minute was calculated.
# In the Tables, P is the case where P-type amylase was used as the sample, and S is the case where S-type amylase was used. The relative sensitivity of P and S is based on the change in absorbance of G3CNP as 100, wherein sodium azide was 300 mM.
# Percent residual enzyme activity and relative sensitivity were calculated by the following formulas.
# Percent residual enzyme activity (%)=(change in absorbance of composition C)/(change in absorbance of composition D)×100
# Relative sensitivity (%)=(change in absorbance of composition D)/(change in absorbance of Comparative Example wherein sodium azide was 300 mM)×100
structure (smiles),measurement,setting,value
"O=[N+]([O-])c1ccc(O[C@H]2O[C@H](CO)[C@@H](O[C@H]3O[C@H](CO)[C@@H](O[C@H]4O[C@H](CO)[C@@H](O)[C@H](O)[C@H]4O)[C@H](O)[C@H]3O)[C@H](O)[C@H]2O)c(Cl)c1 [Example G3CNP, 2-chloro-4-nitrophenylmaltotrioside, reference compound]","Change in absorbance, Containing Antibody (Composition A)",[1]; potassium thiocyanate 0 mM,0.5 mABS/min
same,"Change in absorbance, Without antibody (Composition B)",[1]; potassium thiocyanate 0 mM,4.9 mABS/min
same,Relative sensitivity,[1]; potassium thiocyanate 0 mM,11.0%
same,Percent residual enzyme activity,[1]; potassium thiocyanate 0 mM,10.2%
same,"Change in absorbance, Containing Antibody (Composition A)",[1]; potassium thiocyanate 50 mM,0.7 mABS/min
same,"Change in absorbance, Without antibody (Composition B)",[1]; potassium thiocyanate 50 mM,14.8 mABS/min
same,Relative sensitivity,[1]; potassium thiocyanate 50 mM,33.1%
same,Percent residual enzyme activity,[1]; potassium thiocyanate 50 mM,4.7%
same,"Change in absorbance, Containing Antibody (Composition A)",[1]; potassium thiocyanate 100 mM,0.9 mABS/min
same,"Change in absorbance, Without antibody (Composition B)",[1]; potassium thiocyanate 100 mM,21.9 mABS/min
same,Relative sensitivity,[1]; potassium thiocyanate 100 mM,49.0%
same,Percent residual enzyme activity,[1]; potassium thiocyanate 100 mM,4.1%
same,"Change in absorbance, Containing Antibody (Composition A)",[1]; potassium thiocyanate 140 mM,1.3 mABS/min
same,"Change in absorbance, Without antibody (Composition B)",[1]; potassium thiocyanate 140 mM,26.6 mABS/min
same,Relative sensitivity,[1]; potassium thiocyanate 140 mM,59.5%
same,Percent residual enzyme activity,[1]; potassium thiocyanate 140 mM,4.9%
same,"Change in absorbance, Containing Antibody (Composition A)",[1]; potassium thiocyanate 200 mM,1.5 mABS/min
same,"Change in absorbance, Without antibody (Composition B)",[1]; potassium thiocyanate 200 mM,31.4 mABS/min
same,Relative sensitivity,[1]; potassium thiocyanate 200 mM,70.2%
same,Percent residual enzyme activity,[1]; potassium thiocyanate 200 mM,4.8%
same,"Change in absorbance, Containing Antibody (Composition A)",[1]; potassium thiocyanate 300 mM,2.2 mABS/min
same,"Change in absorbance, Without antibody (Composition B)",[1]; potassium thiocyanate 300 mM,39.7 mABS/min
same,Relative sensitivity,[1]; potassium thiocyanate 300 mM,88.8%
same,Percent residual enzyme activity,[1]; potassium thiocyanate 300 mM,5.5%
same,"Change in absorbance, Containing Antibody (Composition A)",[1]; potassium thiocyanate 400 mM,3.3 mABS/min
same,"Change in absorbance, Without antibody (Composition B)",[1]; potassium thiocyanate 400 mM,43.2 mABS/min
same,Relative sensitivity,[1]; potassium thiocyanate 400 mM,96.6%
same,Percent residual enzyme activity,[1]; potassium thiocyanate 400 mM,7.6%
same,"Change in absorbance, Containing Antibody (Composition A)",[1]; potassium thiocyanate 500 mM,4.6 mABS/min
same,"Change in absorbance, Without antibody (Composition B)",[1]; potassium thiocyanate 500 mM,45.8 mABS/min
same,Relative sensitivity,[1]; potassium thiocyanate 500 mM,102.5%
same,Percent residual enzyme activity,[1]; potassium thiocyanate 500 mM,10.0%
same,"Change in absorbance, Containing Antibody (Composition A)",[1]; potassium thiocyanate 600 mM,5.4 mABS/min
same,"Change in absorbance, Without antibody (Composition B)",[1]; potassium thiocyanate 600 mM,47.3 mABS/min
same,Relative sensitivity,[1]; potassium thiocyanate 600 mM,105.8%
same,Percent residual enzyme activity,[1]; potassium thiocyanate 600 mM,11.4%
same,"Change in absorbance, Containing Antibody (Composition A)",[1]; potassium thiocyanate 700 mM,7.0 mABS/min
same,"Change in absorbance, Without antibody (Composition B)",[1]; potassium thiocyanate 700 mM,47.1 mABS/min
same,Relative sensitivity,[1]; potassium thiocyanate 700 mM,105.4%
same,Percent residual enzyme activity,[1]; potassium thiocyanate 700 mM,14.9%
same,"Change in absorbance, Containing Antibody (Composition A)",[1]; potassium thiocyanate 800 mM,8.4 mABS/min
same,"Change in absorbance, Without antibody (Composition B)",[1]; potassium thiocyanate 800 mM,45.8 mABS/min
same,Relative sensitivity,[1]; potassium thiocyanate 800 mM,102.5%
same,Percent residual enzyme activity,[1]; potassium thiocyanate 800 mM,18.3%
same,"Change in absorbance, Containing Antibody (Composition A)",[1]; potassium thiocyanate 900 mM,10.0 mABS/min
same,"Change in absorbance, Without antibody (Composition B)",[1]; potassium thiocyanate 900 mM,44.7 mABS/min
same,Relative sensitivity,[1]; potassium thiocyanate 900 mM,100.0%
same,Percent residual enzyme activity,[1]; potassium thiocyanate 900 mM,22.4%
same,"Change in absorbance, Containing Antibody (Composition C)",[2]; sodium azide 0 mM,0.3 mABS/min
same,"Change in absorbance, Without antibody (Composition D)",[2]; sodium azide 0 mM,4.7 mABS/min
same,Relative sensitivity,[2]; sodium azide 0 mM,10.2%
same,Percent residual enzyme activity,[2]; sodium azide 0 mM,6.4%
same,"Change in absorbance, Containing Antibody (Composition C)",[2]; sodium azide 30 mM,0.9 mABS/min
same,"Change in absorbance, Without antibody (Composition D)",[2]; sodium azide 30 mM,15.7 mABS/min
same,Relative sensitivity,[2]; sodium azide 30 mM,34.2%
same,Percent residual enzyme activity,[2]; sodium azide 30 mM,5.7%
same,"Change in absorbance, Containing Antibody (Composition C)",[2]; sodium azide 60 mM,1.0 mABS/min
same,"Change in absorbance, Without antibody (Composition D)",[2]; sodium azide 60 mM,22.4 mABS/min
same,Relative sensitivity,[2]; sodium azide 60 mM,48.8%
same,Percent residual enzyme activity,[2]; sodium azide 60 mM,4.5%
same,"Change in absorbance, Containing Antibody (Composition C)",[2]; sodium azide 90 mM,1.6 mABS/min
same,"Change in absorbance, Without antibody (Composition D)",[2]; sodium azide 90 mM,28.6 mABS/min
same,Relative sensitivity,[2]; sodium azide 90 mM,62.3%
same,Percent residual enzyme activity,[2]; sodium azide 90 mM,5.6%
same,"Change in absorbance, Containing Antibody (Composition C)",[2]; sodium azide 120 mM,1.5 mABS/min
same,"Change in absorbance, Without antibody (Composition D)",[2]; sodium azide 120 mM,31.0 mABS/min
same,Relative sensitivity,[2]; sodium azide 120 mM,67.5%
same,Percent residual enzyme activity,[2]; sodium azide 120 mM,4.8%
same,"Change in absorbance, Containing Antibody (Composition C)",[2]; sodium azide 150 mM,1.6 mABS/min
same,"Change in absorbance, Without antibody (Composition D)",[2]; sodium azide 150 mM,35.8 mABS/min
same,Relative sensitivity,[2]; sodium azide 150 mM,78.0%
same,Percent residual enzyme activity,[2]; sodium azide 150 mM,4.5%
same,"Change in absorbance, Containing Antibody (Composition C)",[2]; sodium azide 200 mM,1.9 mABS/min
same,"Change in absorbance, Without antibody (Composition D)",[2]; sodium azide 200 mM,41.1 mABS/min
same,Relative sensitivity,[2]; sodium azide 200 mM,89.5%
same,Percent residual enzyme activity,[2]; sodium azide 200 mM,4.6%
same,"Change in absorbance, Containing Antibody (Composition C)",[2]; sodium azide 250 mM,2.2 mABS/min
same,"Change in absorbance, Without antibody (Composition D)",[2]; sodium azide 250 mM,44.5 mABS/min
same,Relative sensitivity,[2]; sodium azide 250 mM,96.9%
same,Percent residual enzyme activity,[2]; sodium azide 250 mM,4.9%
same,"Change in absorbance, Containing Antibody (Composition C)",[2]; sodium azide 300 mM,2.3 mABS/min
same,"Change in absorbance, Without antibody (Composition D)",[2]; sodium azide 300 mM,45.9 mABS/min
same,Relative sensitivity,[2]; sodium azide 300 mM,100.0%
same,Percent residual enzyme activity,[2]; sodium azide 300 mM,5.0%
same,percent inhibition of S-type amylase,"[2]; irrespective of sodium azide concentrations, FIG. 4 and FIG. 5",around 95%
